In experiment [1] the test system is HIV-1 HXB2-D variants with site-directed RT mutations. The experiment is described as follows: MT-4 cell CPE protection assay, HIV-1 variants constructed by site-directed mutagenesis (Example 2). The class given is cell-based. As to the method:
Mutations in the RT coding region were created by site-directed mutagenesis of a wild-type HXB2-D EcoRl-Pstl restriction enzyme fragment, encompassing the HIV-1 pol gene and cloned into pGEM3 (Promega). Single and multiple nucleotide changes were introduced into RT using the EXSITE™ mutagenesis kit (Strategene). All mutant clones were verified by DNA sequence analysis of the entire RT. PCR fragments were prepared from the mutated clones and the altered RT coding regions were transferred into the HIV-1 HXB2-D genetic background by homologous recombination as described above. The susceptibility of these recombinant viruses to nucleoside analogues was subsequently determined by the MT-4 cell CPE protection assay. Id.

Experiment [2] concerns HIV with mutations in the reverse transcriptase gene sequence. Nature of the experiment: Phenotypic fold resistance to reverse transcriptase inhibitors, RT mutations at positions 101, 103, 181, 190 (Examples 4-7). The class given is cell-based, HIV-1. As to the method: As is the case with the genotyping assays, the recombinant virus assay starts with the amplification of viral target sequences by means of PCR. The amplicons are incorporated into a proviral laboratory clone with sequences homologous to those present in the amplicon deleted. This generates a stock of chimeric viruses. The viruses are tested for their ability to grow in the presence of different concentrations of drugs. Results are obtained by calculating IC50 values for each inhibitor and by reporting the results as IC50 values, expressed in μM concentrations, or by computing the ratio of the IC50 values found for the chimeric virus to the IC50 values found for a wild type susceptible laboratory virus tested in parallel. In the latter case, resistance is expressed as “fold-resistance” compared to a wild-type susceptible HIV-1 strain. In order to meet the need for high-volume testing and a short turn-around time for an individual test, the latest generation of phenotyping assays has undergone further modifications. The use of reporter gene systems for susceptibility testing allows the implementation of laboratory automation and standardization. See Pauwels, et al., J. Virol. Methods 20, 309-321 (1998); Paulous, S., et al., International Workshop on HIV Drug Resistance, Treatment Strategies and Eradication, St. Petersburg, Fla., USA. Abstr. 46 (1997); and Deeks, S. G., et al., 2nd International Workshop on HIV Drug Resistance and Treatment Strategies, Lake Maggiore, Italy. Abstr. 53 (1998).
The methods of monitoring HIV-1 drug resistance, may also be used in combination with phenotypic drug resistance testing of viral isolates. For example, in one embodiment, a phenotypic test is utilized that is based upon the construction of chimeric HIV-1 strains composed of the protease (PR) and reverse transcriptase (RT) gene sequences which are isolated and amplified from the patient viral RNA. These strains may subsequently be recombined inside CD4+ T cells with a standard laboratory isogenic (HXB2) HIV-1 DNA construct from which the PR/RT gene sequences were deleted. The recombinant strains may then be grown in the presence of the above-mentioned antiviral drugs and the susceptibility of the viral isolates may be expressed as fold-change value of the IC50 of the drug on the patient isolates over the IC50 of the drug on a wild-type laboratory reference strain.
Overview of the mean fold increase in resistance and the effect of the 101 mutations in the HIV reverse transcriptase gene sequence. The fold increase in resistance is calculated from the increase in the mean IC50 of the drug relative to the mean IC50 of the same drug for a wild-type reference laboratory HIV-1 strain. The effect of the mutations was investigated on Nevirapine, Delavirdine and Efavirenz.
Overview of the mean fold increase in resistance and the effect of the 103 mutations in the HIV reverse transcriptase gene sequence. The fold increase in resistance is calculated from the increase in the mean IC50 of the drug relative to the mean IC50 of the same drug for a wild-type reference laboratory HIV-1 strain.
Overview of the mean fold increase in resistance and the effect of the 181 mutations in the HIV reverse transcriptase gene sequence. The fold increase in resistance is calculated from the increase in the mean IC50 of the drug relative to the mean IC50 of the same drug for a wild-type reference laboratory HIV-1 strain.
Overview of the mean fold increase in resistance and the effect of the 190 mutations in the HIV reverse transcriptase gene sequence. The fold increase in resistance is calculated from the increase in the mean IC50 of the drug relative to the mean IC50 of the same drug for a wild-type reference laboratory HIV-1 strain.

`Nc1nc(NC2CC2)c2ncn([C@H]3C=C[C@@H](CO)C3)c2n1` [abacavir, 4-[(2-amino-6-cyclopropyl-amino)-9H-purin-9-yl]-2-cyclopentene-1-methanol]: in experiment [1] (69S-[S-S] insert plus AZT resistance mutations (210W and 215Y)), the “susceptibility” value is “decreased susceptibility”.
`CC(C)Nc1cccnc1N1CCN(C(=O)c2cc3cc(NS(C)(=O)=O)ccc3[nH]2)CC1` [Delavirdine, delavirdine]: the “fold increase in resistance compared to a laboratory reference strain (WT)” value in experiment [2] (RT genotype 101E) was found to be 7.7 fold; in experiment [2] (RT genotype 101H) it was 45.5 fold; in experiment [2] (RT genotype 101P) it was 162.4 fold; in experiment [2] (RT genotype 101Q), 1.2 fold; in experiment [2] (RT genotype 181C), 82.5 fold; in experiment [2] (RT genotype 181I), 81.7 fold. Also, the “fold increase in resistance compared to a laboratory reference strain (WT)” value in experiment [2] (RT genotype 181S) is 147.9 fold; in experiment [2] (RT genotype 190A) it was 2.3 fold; in experiment [2] (RT genotype 190E), 131.1 fold; in experiment [2] (RT genotype 190Q), 34.0 fold; in experiment [2] (RT genotype 190S), 1.9 fold; in experiment [2] (RT genotype WT (Table 5)), 1.8 fold. Also, the “fold increase in resistance compared to a laboratory reference strain (WT)” value in experiment [2] (RT genotype WT (Table 7)) and in experiment [2] (RT genotype WT (Table 8)) was 1.8 fold in each case. Also, the “mean fold increase in resistance compared to a laboratory reference strain (WT)” value (“mean fold increase in resistance” below) is reported as 191.6 fold in experiment [2] (RT genotype 103H); 176.1 fold in experiment [2] (RT genotype 103N); 1.6 fold in experiment [2] (RT genotype 103R); 18.3 fold in experiment [2] (RT genotype 103S); 84.5 fold in experiment [2] (RT genotype 103T); 1.8 fold in experiment [2] (RT genotype WT (Table 6)).
For the compound `Cc1ccnc2c1NC(=O)c1cccnc1N2C1CC1` [Nevirapine, nevirapine], the “fold increase in resistance compared to a laboratory reference strain (WT)” value is recorded as 4.9 fold in experiment [2] (RT genotype 101E); 24.0 fold in experiment [2] (RT genotype 101H); 53.4 fold in experiment [2] (RT genotype 101P); 1.9 fold in experiment [2] (RT genotype 101Q); 56.0 fold in experiment [2] (RT genotype 181C); 63.8 fold in experiment [2] (RT genotype 181I). Besides, the “fold increase in resistance compared to a laboratory reference strain (WT)” value in experiment [2] (RT genotype 181S) came out at 82.8 fold; in experiment [2] (RT genotype 190A), 60.7 fold; in experiment [2] (RT genotype 190E), 40.0 fold; in experiment [2] (RT genotype 190Q), 52.7 fold; in experiment [2] (RT genotype 190S), 75.9 fold; in experiment [2] (RT genotype WT (Table 5)) it was 1.3 fold. Moreover, the “fold increase in resistance compared to a laboratory reference strain (WT)” value in experiment [2] (RT genotype WT (Table 7)) and in experiment [2] (RT genotype WT (Table 8)) was 1.3 fold each time. Further, the “mean fold increase in resistance” value in experiment [2] (RT genotype 103H) was determined as 69.4 fold; in experiment [2] (RT genotype 103N), 48.1 fold; in experiment [2] (RT genotype 103R), 1.1 fold; in experiment [2] (RT genotype 103S), 45.4 fold; in experiment [2] (RT genotype 103T), 43.7 fold; in experiment [2] (RT genotype WT (Table 6)), 1.3 fold.
On to `O=c1[nH]cnc2c1ncn2[C@H]1CC[C@@H](CO)O1` [ddl, didanosine], for which, in experiment [1] (T69A or V75M in a background of AZT mutations), the “resistance” value was “little or no resistance”.
As to `O=C1Nc2ccc(Cl)cc2[C@@](C#CC2CC2)(C(F)(F)F)O1` [Efavirenz, efavirenz], the “fold increase in resistance compared to a laboratory reference strain (WT)” value is recorded as 2.4 fold in experiment [2] (RT genotype 101E); 3.5 fold in experiment [2] (RT genotype 101H); 84.2 fold in experiment [2] (RT genotype 101P); 0.9 fold in experiment [2] (RT genotype 101Q); 2.0 fold in experiment [2] (RT genotype 181C); 2.0 fold in experiment [2] (RT genotype 181I). The “fold increase in resistance compared to a laboratory reference strain (WT)” value in experiment [2] (RT genotype 181S) came to 8.7 fold; in experiment [2] (RT genotype 190A), 24.8 fold; in experiment [2] (RT genotype 190E), 385.3 fold; in experiment [2] (RT genotype 190Q), 401.1 fold; in experiment [2] (RT genotype 190S) it was 483.6 fold; in experiment [2] (RT genotype WT (Table 5)), 0.9 fold. Further, the “fold increase in resistance compared to a laboratory reference strain (WT)” value in experiment [2] (RT genotype WT (Table 7)) and in experiment [2] (RT genotype WT (Table 8)) was 0.9 fold in each case. For the same compound, the “mean fold increase in resistance” value in experiment [2] (RT genotype 103H) is reported as 52.7 fold; in experiment [2] (RT genotype 103N), 486.8 fold; in experiment [2] (RT genotype 103R), 0.6 fold; in experiment [2] (RT genotype 103S) it was 8.4 fold; in experiment [2] (RT genotype 103T), 2.8 fold; in experiment [2] (RT genotype WT (Table 6)), 0.9 fold.

(Values after patent US8574831B2, “Mutational profiles in HIV-1 reverse transcriptase correlated with phenotypic drug resistance” (Virco N.V., priority 2000, dated 2013).)
